Experimental data published in ChEMBL document CHEMBL1129926, “D4 dopamine receptor-selective compounds from the Chinese plant Phoebe chekiangensis” (Bioorg Med Chem Lett, 1997).

Assays:
[1] = target: T1, D(4) dopamine receptor (Homo sapiens, UniProt P21917); assay: Potency was measured by the displacement of [3H]-spiperone binding to human D4 dopaminergic receptor
T1 sequence (P21917 whole entry): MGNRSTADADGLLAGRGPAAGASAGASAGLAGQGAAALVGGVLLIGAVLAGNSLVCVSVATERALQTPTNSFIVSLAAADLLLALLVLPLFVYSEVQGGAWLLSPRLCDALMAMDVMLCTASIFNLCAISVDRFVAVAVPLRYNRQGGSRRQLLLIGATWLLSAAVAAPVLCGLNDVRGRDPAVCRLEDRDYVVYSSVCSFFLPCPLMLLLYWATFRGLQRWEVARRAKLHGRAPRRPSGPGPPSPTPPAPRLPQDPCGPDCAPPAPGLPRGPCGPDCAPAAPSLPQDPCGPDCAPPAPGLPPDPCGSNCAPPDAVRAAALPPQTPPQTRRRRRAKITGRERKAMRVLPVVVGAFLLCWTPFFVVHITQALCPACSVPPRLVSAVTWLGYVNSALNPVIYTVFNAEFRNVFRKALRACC

[2] = target: T1, D(4) dopamine receptor; assay: Inhibitory concentration against binding of [3H]spiperone to human D4 dopaminergic receptor
[3] = target: D(2) dopamine receptor (Homo sapiens, UniProt P14416); assay: Inhibitory concentration against binding of [3H]spiperone to human D2 dopaminergic receptor
D(2) dopamine receptor, sequence (P14416 whole entry): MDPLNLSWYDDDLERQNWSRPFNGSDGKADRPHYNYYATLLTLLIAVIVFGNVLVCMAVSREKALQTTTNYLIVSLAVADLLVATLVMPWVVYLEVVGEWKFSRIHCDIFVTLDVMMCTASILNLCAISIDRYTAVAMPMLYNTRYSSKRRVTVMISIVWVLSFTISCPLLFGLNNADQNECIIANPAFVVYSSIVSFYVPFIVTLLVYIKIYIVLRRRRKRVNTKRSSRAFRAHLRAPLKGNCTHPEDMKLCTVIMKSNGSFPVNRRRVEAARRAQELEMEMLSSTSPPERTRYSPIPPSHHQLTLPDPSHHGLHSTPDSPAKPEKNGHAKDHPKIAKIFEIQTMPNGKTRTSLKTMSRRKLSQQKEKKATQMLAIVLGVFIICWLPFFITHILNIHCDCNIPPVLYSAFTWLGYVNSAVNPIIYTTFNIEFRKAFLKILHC

Q: With Oc1ccc(CC2NCCc3cc(O)c(O)cc32)cc1O (centres undefined) as the molecule, how does the Ki [1] read?
A: Its Ki is 2.5 µM.

Q: For Oc1ccc2c(c1)CCN2, which IC50 [2] is on record?
A: The IC50 was 39.2 µM.

Q: What about the Ki [1] of the same molecule?
A: The Ki was 0.5 µM.

Q: And the IC50 [3]?
A: Its IC50 is 1.03 µM.

Q: For CN1CCc2cc(O)c(O)cc2C1Cc1ccc(O)c(O)c1 (centres undefined), which Ki [1] is on record?
A: The Ki was 0.35 µM.

Q: OC[C@H]1O[C@H](Oc2ccc(CC3NCCc4cc(O)c(O)cc43)cc2)[C@H](O)[C@H](O)[C@H]1O (some centres undefined) was tested. Which IC50 [2] did it give?
A: The IC50 was 47.5 µM.

Q: And the Ki [1]?
A: Its Ki is 1.2 µM.

Q: How did the Ki [1] turn out when CC1NCCc2cc(O)c(O)cc21 (centres undefined) was run?
A: The Ki was 6.4 µM.

Q: For Oc1ccc(CC2NCCc3cc(O)c(O)cc32)cc1 (centres undefined) [HIGENAMINE], which Ki [1] is on record?
A: The Ki was 3.1 µM.
